Earlier results on two compounds are cited in patent publication US20100035919A1, “COMPOUNDS USEFUL AS INHIBITORS OF PROTEIN KINASES” (ABBOTT LABORATORIES, priority 2008, published 2010).

Molecules are shown by their SMILES.

In series [1] the test system is rat. Particulars: experimental myocardial infarction (MI); rat model of chronic hypertension induced congestive heart failure.
Series [2] deals with vein grafts. The settings on record: weeks following the procedure.
Series [3] relates to Zucker obese rats. The settings on record: 4 weeks.
The subject of series [4] is OLETF rats. Particulars: high dose.

For `C[C@@H](N)[C@H]1CC[C@H](C(=O)Nc2ccncc2)CC1` [Example Y-27632, Y-27632], the “effect on ischemia-reperfusion injury, myocardial infarct size and myocardial fibrosis” value in series [1] was “decrease ischemia-reperfusion injury, myocardial infarct size, and myocardial fibrosis”.

Turning to `O=S(=O)(c1cccc2cnccc12)N1CCCNCC1` [fasudil], the “effect on ischemia-reperfusion injury, myocardial infarct size and myocardial fibrosis” value in series [1] was “decrease ischemia-reperfusion injury, myocardial infarct size, and myocardial fibrosis”. Further, in series [2], the VSMC apoptosis result was “enhanced”; the “intimal thickening and vascular smooth muscle cell (VSMC) proliferation” value is given as “significantly suppressed”. In addition, the “blood pressure, glucose and lipid metabolism, insulin signalling, endothelial dysfunction” value in series [3] is “reduced blood pressure, corrected glucose and lipid metabolism, improved insulin signalling and endothelial dysfunction”. In addition, in series [4], the “development of diabetes, obesity, and dyslipidemia” value is “completely suppressed”; the serum adiponectin levels result is “increased”. Moreover, the cerebral blood flow entry (in vivo) was “increased cerebral blood flow”. For the same compound, the neuroprotection result (under CNS ischemic conditions) is given as “neuroprotective”.
